In ChEMBL document CHEMBL4418315, “Atg7 inhibitors and the uses thereof” (2018):

target: T1, Ubiquitin-like modifier-activating enzyme ATG7 (Homo sapiens, UniProt O95352); experiment: Inhibition of recombinant His-tagged human ATG7 incubated for 105 mins in presence of GST-tagged ATG3 and Flag-tagged Gabarap and measured after 2 hrs by FRET assay
T1 sequence (O95352 whole entry): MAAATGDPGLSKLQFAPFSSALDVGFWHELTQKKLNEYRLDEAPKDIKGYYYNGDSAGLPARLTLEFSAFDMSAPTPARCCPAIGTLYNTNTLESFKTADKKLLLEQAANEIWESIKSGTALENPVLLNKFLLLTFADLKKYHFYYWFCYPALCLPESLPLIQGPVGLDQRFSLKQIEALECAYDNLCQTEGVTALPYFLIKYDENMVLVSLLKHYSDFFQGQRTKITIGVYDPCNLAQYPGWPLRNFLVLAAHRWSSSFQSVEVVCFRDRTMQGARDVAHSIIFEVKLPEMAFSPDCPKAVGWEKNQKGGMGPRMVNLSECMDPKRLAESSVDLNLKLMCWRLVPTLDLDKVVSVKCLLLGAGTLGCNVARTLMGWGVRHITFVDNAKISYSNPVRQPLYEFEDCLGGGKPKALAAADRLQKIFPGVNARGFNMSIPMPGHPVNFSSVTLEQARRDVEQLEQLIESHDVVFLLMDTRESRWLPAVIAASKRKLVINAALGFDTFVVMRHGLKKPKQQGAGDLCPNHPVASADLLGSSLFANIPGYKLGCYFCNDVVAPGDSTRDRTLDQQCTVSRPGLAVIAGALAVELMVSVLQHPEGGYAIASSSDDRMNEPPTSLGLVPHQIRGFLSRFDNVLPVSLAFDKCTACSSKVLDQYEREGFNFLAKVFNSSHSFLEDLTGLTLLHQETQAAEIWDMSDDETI

SMILES	IC50
CCc1nn([C@H]2C[C@H](O)[C@H](COS(N)(=O)=O)O2)c2ncnc(N)c12	> 500 nM
Nc1ncnc2c1c(SCCO)nn2[C@@H]1O[C@H](COS(N)(=O)=O)[C@@H](O)[C@@H]1F	20 to 50 nM

target: T2, Ubiquitin-like modifier-activating enzyme ATG7 (Homo sapiens) (UniProt O95352); experiment: Inhibition of recombinant His-tagged human ATG7 at 0.111 uM incubated for 105 mins in presence of GST-tagged ATG3 and Flag-tagged Gabarap and measured after 2 hrs by FRET assay relative to control
T2 sequence (whole entry): T1 sequence (O95352 whole entry)

SMILES	inhibition
CC[C@H](C)Sc1nn([C@@H]2O[C@H](COS(N)(=O)=O)[C@@H](O)[C@@H]2F)c2ncnc(N)c12	61%
Nc1ncnc2c1cnn2[C@H]1C[C@H](O)[C@H](COS(N)(=O)=O)O1	5%
Cc1ccc(Sc2nn([C@H]3C[C@H](O)[C@@H](COS(N)(=O)=O)O3)c3ncnc(N)c23)c(F)c1	59 to 64%
CC[C@@H](C)Sc1nn([C@@H]2O[C@H](COS(N)(=O)=O)[C@@H](O)[C@@H]2F)c2ncnc(N)c12	63%
